One assay addresses His-Brd3(20-477) (Homo sapiens (Human), UniProt Q15059). Briefly: TR-FRET in-vitro binding assay for BRD3. Particulars: biochemical. A digest of the protocol: (§1)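 Assay buffer HEPES pH 7.5/NaCl/Tween20/BSA; protein solution 45 nM, peptide solution 60 nM acetyl-H4 (AcK5,8,12,16). Incubated 30 °C for 35 min; Eu-anti-His6 and SA-APC detection, TR-FRET read.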
(In general: Time-resolved FRET reads energy transfer from a long-lived donor to a nearby acceptor.)

The target in a further assay is His-Brd2(60-472) (Homo sapiens (Human), UniProt P25440). The assay is described as follows: TR-FRET in-vitro binding assay for BRD2. Particulars: biochemical. A digest of the protocol:
as §1

The test system of the next assay is MV-4-11 cells. Briefly: Cell growth inhibition assay (CellTiter-Glo), MV-4-11. It counts as cell-based. Particulars: Homo sapiens, MV4-11, read-out: MV-4-11 TGI. How it is done: (§2) Cell Growth Inhibition Assay
(§3) The human leukemia cell lines MV-4-11, THP-1 and K-562 were employed to characterize the effect of BET inhibitors on cellular proliferation and viability. Cells were obtained from the American Type Culture Collection (ATCC) and cultured at 37° C. in a humidified 5% CO2 incubator in the following media: MV-4-11: DMEM high glucose (Animed #1-26F01-I), 10% FCS (Animed #2-01F26-I), 4 mM L-Glutamine (Animed #5-10K50), 1 mM Sodium Pyruvate (Animed # G03625P), 1× Penicillin-Streptomycin (Animed # F12478P); K-562: Iscove's MEM (Animed #1-28F16-I), 10% FCS (Animed #2-01F26-I), 4 mM L-Glutamine (Animed #5-10K50), 1× Penicillin-Streptomycin (Animed # F12478P); THP-1: RPMI-1640 (Animed #1-41F01-I), 10% FCS (Animed #2-01F26-I), 2 mM L-Glutamine (Animed #5-10K50), 10 mM HEPES (Animed #5-31F100), 1 mM Sodium Pyruvate (Animed # G03625P), 1× Penicillin-Streptomycin (Animed # F12478P). The AML lines MV-4-11 and THP-1 are very sensitive to BET inhibitors and show massive cell death upon BET inhibition (Zuber et al., Nature, 478 (2011), 524-8). Compound-mediated suppression of cell proliferation/viability was assessed by quantification of cellular ATP levels using the CellTiter-Glo (CTG) reagent (Promega). Briefly, cells were seeded in 20 μl fresh medium into 384-well plates, followed by addition of 5 μL medium containing compound dilutions at 5-fold their final intended concentration. Dose-response effects were assessed by 3-fold serial dilutions of the test compound, starting at 10 μM. Following incubation of the cells for days at 37° C. and 5% CO2, the effect of inhibitors on cell viability was quantified following addition of 20 μl CTG and luminescence quantification (integration time: 100 ms) as per vendor manual, using a correspondingly equipped Tecan M200 multi-mode platereader (TECAN, Switzerland). For data analysis, the assay background value determined in wells containing medium, but no cells, was subtracted from all data points. To enable differentiation of cytotoxic from cytostatic compounds, the number of viable cells is assessed relative to that observed at the time of compound addition using a separate cell plate (day 0). The effect of a particular test compound concentration on cell proliferation/viability is expressed as percentage of the background- and day 0-corrected luminescence reading obtained for cells treated with vehicle only (DMSO, 0.1% final concentration), which is set as 100%, whereas that luminescence reading for wells containing medium is set as −100%. Compound concentrations leading to half-maximal (IC50) and total growth inhibition (TGI) were determined using standard four parameter curve fitting.
On the technique in general: ATP-based viability assays read luminescence as a measure of living cells.

For the next assay, the target named is His-Brd4(44-477) (Homo sapiens (Human), UniProt O60885). The assay is described as follows: TR-FRET in-vitro binding assay for BRD4. Particulars: biochemical. A digest of the protocol: as §1
The next assay deals with K-562 cells. Briefly: Cell growth inhibition assay (CellTiter-Glo), K-562. Type of assay: cell-based, human. Particulars: Homo sapiens, K562, read-out: K-562 TGI. How it is done: as §2, §3
The subject of a further assay is THP-1 cells. Briefly: Cell growth inhibition assay (CellTiter-Glo), THP-1. Type of assay: cell-based. Particulars: Homo sapiens, read-out: THP-1 TGI. How it is done: as §2, §3
For assay [1], the target named is His-CREBBP (1081-1197) bromodomain (Homo sapiens (Human), UniProt Q92793). The assay is described as follows: AlphaScreen in-vitro binding assay for CREBBP. Particulars: biochemical. How it is done: AlphaScreen In-Vitro Binding Assay for CREBBP
In order to assess bromodomain selectivity, we set up a binding assay using the bromodomain encoded by the CREBBP gene. […] Reactions were incubated at 30° C. for 35 minutes. Subsequently 4.5 μL per well detection mix (50 mM HEPES, pH 7.5, 0.005% Tween20, 0.02% BSA, 150 mM NaCl, 45 μg/ml Ni-chelate acceptor beads, 45 μg/mL streptavidin-donor beads) (Perkin Elmer)) were added. After 60 minutes incubation at room temperature, plates were measured in a Perkin Elmer EnVision multilabel reader. IC50 values were determined from percent inhibition values at different compound concentrations by non-linear regression analysis.
Test compounds were dissolved in DMSO (10 mM) and transferred into 1.4 mL flat bottom or V-shaped Matrix tubes carrying a unique 2D matrix. The stock solutions were stored at […] if not used immediately. For the test procedure the vials were defrosted and identified by a scanner whereby a working sheet was generated that guided the subsequent working steps. Compound dilutions were made in 96 well plates. This format enabled the assay of maximally […] at 8 concentrations (single points) including 4 reference compounds, if desired (known BET inhibitors from the prior art, for this and other assays of the type disclosed herein). The dilution protocol included the production of “pre-dilution plates”, “master plates” and “assay plates”.
Polypropylene 96-well plates were used as pre-dilution plates. […] All dilution steps were done on a HamiltonSTAR robot.
These plates were used directly for the assay which was performed in a total volume of 13.55 μL.
(In general: Bead proximity is the source of the signal in Alpha formats.)

pIC50: −log10 of the molar value.

Sequence of His-Brd3(20-477) (Q15059 20-477): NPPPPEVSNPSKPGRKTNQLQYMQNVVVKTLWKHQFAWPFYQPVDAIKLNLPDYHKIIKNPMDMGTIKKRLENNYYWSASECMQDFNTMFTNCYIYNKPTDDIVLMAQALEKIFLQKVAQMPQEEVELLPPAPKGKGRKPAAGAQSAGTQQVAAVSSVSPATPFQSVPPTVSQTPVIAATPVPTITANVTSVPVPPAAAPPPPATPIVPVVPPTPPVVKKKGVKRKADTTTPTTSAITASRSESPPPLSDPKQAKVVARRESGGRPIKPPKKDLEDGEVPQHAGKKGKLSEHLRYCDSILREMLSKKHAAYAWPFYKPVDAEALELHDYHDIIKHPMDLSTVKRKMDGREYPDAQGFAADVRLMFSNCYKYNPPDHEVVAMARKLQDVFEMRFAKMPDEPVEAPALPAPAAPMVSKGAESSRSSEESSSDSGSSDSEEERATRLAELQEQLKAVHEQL
Sequence of His-Brd2(60-472) (P25440 60-472): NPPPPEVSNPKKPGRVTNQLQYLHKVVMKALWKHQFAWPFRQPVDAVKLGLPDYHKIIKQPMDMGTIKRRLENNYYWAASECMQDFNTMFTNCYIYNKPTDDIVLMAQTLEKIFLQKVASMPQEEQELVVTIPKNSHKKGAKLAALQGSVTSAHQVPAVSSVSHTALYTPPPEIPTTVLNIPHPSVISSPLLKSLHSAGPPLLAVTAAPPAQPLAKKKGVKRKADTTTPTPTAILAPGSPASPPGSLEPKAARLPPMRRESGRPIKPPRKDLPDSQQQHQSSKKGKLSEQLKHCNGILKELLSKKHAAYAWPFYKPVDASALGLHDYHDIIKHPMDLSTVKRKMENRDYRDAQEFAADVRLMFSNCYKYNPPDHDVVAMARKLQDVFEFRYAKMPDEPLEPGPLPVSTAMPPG
Sequence of His-CREBBP (1081-1197) bromodomain (Q92793 1081-1197): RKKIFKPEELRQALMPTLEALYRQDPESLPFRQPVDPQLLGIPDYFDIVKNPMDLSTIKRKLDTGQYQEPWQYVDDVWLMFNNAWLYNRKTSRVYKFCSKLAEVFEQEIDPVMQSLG

In the case of `Cc1c2c(nn1C)C(=O)N(c1cc(Cl)c(=O)n(C)c1)[C@@H]2c1ccc(Cl)cc1` [Example 7, (R)-5-(5-chloro-1-methyl-6-oxo-1,6-dihydropyridin-3-yl)-4-(4-chlorophenyl)-2,3-dimethyl-4,5-dihydropyrrolo[3,4-c]pyrazol-6(2H)-one], the results for the pIC50 on His-Brd3(20-477), on His-Brd2(60-472) and at His-Brd4(44-477) were 7.17, 7.00 and 7.14, respectively. Besides, the figures for the IC (total growth inhibition) in the assay on MV-4-11 cells, in the assay on K-562 cells and in the assay on THP-1 cells were 0.107 µM, greater than 10 µM and 0.191 µM, respectively.

As to `Cc1cc(N2C(=O)c3nn(C)cc3[C@H]2c2ccc(Cl)cc2)cn(C)c1=O` [Example 16, (R)-4-(4-chlorophenyl)-5-(1,5-dimethyl-6-oxo-1,6-dihydropyridin-3-yl)-2-methyl-4,5-dihydropyrrolo[3,4-c]pyrazol-6(2H)-one], the pIC50 (as a rule, the negative decadic logarithm of the IC50, by convention in mol/L) was 7.18 at His-Brd3(20-477), 7.00 on His-Brd2(60-472) and 7.09 at His-Brd4(44-477). Besides, the IC (total growth inhibition) in the assay with MV-4-11 cells is 0.116 µM; in the assay on K-562 cells it was greater than 10 µM; with THP-1 cells it was 0.207 µM.

On to `Cc1c2c(nn1C1CC1)C(=O)N(c1cc(Cl)c(=O)n(C)c1)[C@H]2c1ccc(Cl)cc1` [Example 18, (S)-5-(5-chloro-1-methyl-6-oxo-1,6-dihydropyridin-3-yl)-4-(4-chlorophenyl)-2-cyclopropyl-3-methyl-4,5-dihydropyrrolo[3,4-c]pyrazol-6(2H)-one], for which the pIC50 was 4.57 on His-Brd3(20-477), 4.52 on His-Brd2(60-472) and 4.64 at His-Brd4(44-477). For the same compound, the IC (total growth inhibition) is 4.04 µM with MV-4-11 cells, greater than 10 µM in the assay with K-562 cells and greater than 10 µM in the assay with THP-1 cells.

In the case of `Cc1cc(N2C(=O)c3nn(C4CC4)c(C)c3[C@H]2c2ccc(Cl)cc2)cn(C)c1=O` [Example 21], the pIC50 on His-Brd3(20-477) was 7.37; at His-Brd2(60-472) it was 7.32; at His-Brd4(44-477) it was 7.33. Also, the IC (total growth inhibition) is 0.0378 µM in the assay with MV-4-11 cells, greater than 10 µM with K-562 cells and 0.0687 µM with THP-1 cells.

Consider `COc1ncc(-n2nc(C)c3c2C(=O)N(c2cc(Cl)c(=O)n(C)c2)C3c2ccc(Cl)cc2)c(OC)n1` (stereo not shown) [Example 53, 5-(5-chloro-1-methyl-6-oxo-1,6-dihydropyridin-3-yl)-4-(4-chlorophenyl)-1-(2,4-dimethoxypyrimidin-5-yl)-3-methyl-4,5-dihydropyrrolo[3,4-c]pyrazol-6(1H)-one], for which the pIC50 was 6.92 at His-Brd3(20-477), 7.01 at His-Brd2(60-472) and 6.89 on His-Brd4(44-477). The results for the IC (total growth inhibition) in the assay on MV-4-11 cells, in the assay on K-562 cells and in the assay on THP-1 cells were 0.372 µM, greater than 10 µM and 0.685 µM, respectively.

On to `COc1ncc(-n2nc3c(c2C(C)C)[C@H](c2ccc(Cl)cc2)N(c2cc(C)c4onc(C)c4c2)C3=O)c(OC)n1` [Example 61, (S)-4-(4-chlorophenyl)-2-(2,4-dimethoxypyrimidin-5-yl)-5-(3,7-dimethylbenzo[d]isoxazol-5-yl)-3-isopropyl-4,5-dihydropyrrolo[3,4-c]pyrazol-6(2H)-one], for which the pIC50 (on His-Brd3(20-477); at His-Brd4(44-477); in assay [1]) was less than 4.43 throughout. Further, the values for the IC (total growth inhibition) in the assay with MV-4-11 cells, in the assay with K-562 cells and in the assay with THP-1 cells were 1.09 µM, greater than 10 µM and greater than 10 µM, respectively.

For `Cc1nn(C2CC2)c2c1C(c1ccc(Cl)cc1)N(c1cc(C)c3nnc(C)n3c1)C2=O` (stereo not shown) [Example 92, 4-(4-chlorophenyl)-1-cyclopropyl-5-(3,8-dimethyl-[1,2,4]triazolo[4,3-a]pyridin-6-yl)-3-methyl-4,5-dihydropyrrolo[3,4-c]pyrazol-6(1H)-one], the pIC50 was 7.57 at His-Brd3(20-477) and 4.83 in assay [1]. Besides, the IC (total growth inhibition) was 0.0175 µM with MV-4-11 cells, greater than 10 µM in the assay with K-562 cells and 0.0395 µM in the assay on THP-1 cells.

For the compound `Cc1nn(C2CC2)c2c1[C@@H](c1ccc(Cl)cc1)N(c1cc(C)c3nnc(C)n3c1)C2=O` [Example 119, (R)-4-(4-chlorophenyl)-1-cyclopropyl-5-(3,8-dimethyl-[1,2,4]triazolo[4,3-a]pyridin-6-yl)-3-methyl-4,5-dihydropyrrolo[3,4-c]pyrazol-6(1H)-one], the figures for the pIC50 (on His-Brd3(20-477); in assay [1]) were 7.77 and 5.05, respectively. Also, the values for the IC (total growth inhibition) in the assay on MV-4-11 cells, with K-562 cells and with THP-1 cells were 0.0116 µM, greater than 10 µM and 0.0226 µM, respectively.

On to `Cc1cc(N2C(=O)c3c(c(CF)nn3C3CC3)C2c2ccc(Cl)cc2)cn2c(C)nnc12` (stereo not shown) [Example 159, 4-(4-chlorophenyl)-1-cyclopropyl-5-(3,8-dimethyl-[1,2,4]triazolo[4,3-a]pyridin-6-yl)-3-(fluoromethyl)-4,5-dihydropyrrolo[3,4-c]pyrazol-6(1H)-one], for which the results for the pIC50 (on His-Brd3(20-477); at His-Brd4(44-477); in assay [1]) were 7.30, 7.34 and 5.18, respectively. Besides, the IC (total growth inhibition) is 0.0812 µM in the assay with MV-4-11 cells, greater than 10 µM with K-562 cells and 0.0855 µM with THP-1 cells.

Consider `COCc1nn(C2CC2)c2c1[C@@H](c1ccc(Cl)cc1)N(c1cc(C)c3nnc(C)n3c1)C2=O` [Example 163, […]], for which the results for the IC (total growth inhibition) in the assay with MV-4-11 cells, with K-562 cells and in the assay with THP-1 cells were 0.022 µM, greater than 10 µM and 0.0461 µM, respectively. Also, the pIC50 at His-Brd4(44-477) is greater than 7.96; in assay [1], 4.96.

Regarding `Cc1cc(N2C(=O)c3c(c(C4CC4)nn3C)[C@H]2c2ccc(Cl)cc2)cn2c(C)nnc12` [Example 164, (R)-4-(4-chlorophenyl)-3-cyclopropyl-5-(3,8-dimethyl-[1,2,4]triazolo[4,3-a]pyridin-6-yl)-1-methyl-4,5-dihydropyrrolo[3,4-c]pyrazol-6(1H)-one], the IC (total growth inhibition) in the assay with MV-4-11 cells is 0.0118 µM; in the assay on K-562 cells, greater than 10 µM; in the assay on THP-1 cells, 0.0173 µM. Also, in assay [1], the pIC50 was 5.29.
